For assay [1], the system named is K. pneumoniae NVT1001 and its ΔompK35/36 and/or ΔramR mutants. Nature of the assay: Etest MIC, OmpK35/36 loss and AcrAB-TolC overexpression (ΔramR) strains (Table 6). The class given is cell-based, Klebsiella pneumoniae. The following applies: Klebsiella pneumoniae. The essentials: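 Etest MICs against K. pneumoniae NVT1001 and its ΔompK35/36 and/or ΔramR mutants, rounded up to the next two-fold value. For NVT1001 carrying pACYC177-blaOXA-48, ceftazidime and cefotaxime MICs by CLSI broth microdilution, interpreted with CLSI 2017 breakpoints.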

The test system of assay [2] is K. pneumoniae NVT1001 ΔramRΔompK35/36 mutant and its revertants. Nature of the assay: Etest MIC, ΔramRΔompK35/36 mutant and its revertants (Table 7). The format is cell-based. The following applies: Klebsiella pneumoniae.
The mark [3] stands for this setting: ΔramRΔ35/36, ΔramRΔompK35/36 mutant.
The mark [4] stands for this setting: ΔramRΔompK35/36::ompK35/36 revertant.
[5] abbreviates: ΔramRΔompK35/36::ompK35 revertant.
Where [6] appears, read: ΔramRΔompK35/36::ompK36 revertant.
Setting [7] is: ΔramRΔompK35/36::ramR revertant.
[8] abbreviates: ΔramRΔompK35/36::ramR::ompK35/36 revertant.
The mark [9] stands for this setting: ΔramRΔompK35/36::ramR::ompK35 revertant.
Setting [10] is: ΔramRΔompK35/36::ramR::ompK36 revertant.

≈ marks a conversion by molar mass, not a printed value. Like-named read-outs stand apart in the source and are kept apart here.

On to `C[C@H]1COc2c(N3CCN(C)CC3)c(F)cc3c(=O)c(C(=O)O)cn1c23` [Levofloxacin, levofloxacin], for which the minimum inhibitory concentration (MIC) in assay [1] (WT, NVT1001, read-out: MIC) was 0.06 µg/mL (≈ 0.166 µM); in assay [1] (Δ35, ΔompK35 mutant), 0.125 µg/mL (≈ 0.346 µM); in assay [1] (Δ35/36, ΔompK35/36 mutant) it was 0.125 µg/mL (≈ 0.346 µM); in assay [1] (Δ36, ΔompK36 mutant), 0.125 µg/mL (≈ 0.346 µM); in assay [1] (ΔramR mutant), 1 µg/mL (≈ 2.77 µM); in assay [1] (ΔramRΔ35, ΔramRΔompK35 mutant), 1 µg/mL (≈ 2.77 µM). The MIC is 1 µg/mL (≈ 2.77 µM) in assay [1] (setting [3]); 1 µg/mL (≈ 2.77 µM) in assay [1] (ΔramRΔ36, ΔramRΔompK36 mutant); 0.5 µg/mL in assay [2] (setting [4]); 1 µg/mL in assay [2] (setting [5]); 0.5 µg/mL in assay [2] (setting [6]); 0.125 µg/mL in assay [2] (setting [7]). Moreover, the MIC in assay [2] (setting [8]) came out at 0.06 µg/mL; in assay [2] (setting [9]), 0.06 µg/mL; in assay [2] (setting [10]), 0.125 µg/mL; in assay [2] (ΔramRΔompK35/36 mutant) it was 1 µg/mL.
Regarding `COc1c(N2C[C@@H]3CCCN[C@@H]3C2)c(F)cc2c(=O)c(C(=O)O)cn(C3CC3)c12` [Moxifloxacin, moxifloxacin], the MIC was determined as 0.125 µg/mL (≈ 0.311 µM) in assay [1] (WT, NVT1001, read-out: MIC); 0.125 µg/mL (≈ 0.311 µM) in assay [1] (Δ35, ΔompK35 mutant); 0.125 µg/mL (≈ 0.311 µM) in assay [1] (Δ35/36, ΔompK35/36 mutant); 0.06 µg/mL (≈ 0.149 µM) in assay [1] (Δ36, ΔompK36 mutant); 1 µg/mL (≈ 2.49 µM) in assay [1] (ΔramR mutant); 1 µg/mL (≈ 2.49 µM) in assay [1] (ΔramRΔ35, ΔramRΔompK35 mutant). Further, the MIC was 1 µg/mL (≈ 2.49 µM) in assay [1] (setting [3]); 1 µg/mL (≈ 2.49 µM) in assay [1] (ΔramRΔ36, ΔramRΔompK36 mutant); 0.5 µg/mL in assay [2] (setting [4]); 1 µg/mL in assay [2] (setting [5]); 0.5 µg/mL in assay [2] (setting [6]); 0.06 µg/mL in assay [2] (setting [7]). Moreover, the MIC turned out to be 0.125 µg/mL in assay [2] (setting [8]), 0.06 µg/mL in assay [2] (setting [9]), 0.125 µg/mL in assay [2] (setting [10]) and 1 µg/mL in assay [2] (ΔramRΔompK35/36 mutant).
For the molecule `CCn1cc(C(=O)O)c(=O)c2ccc(C)nc21` [Nalidixic acid, nalidixic acid], the minimal inhibitory concentration (MIC) in assay [1] (WT, NVT1001, read-out: MIC) stood at 4 µg/mL (≈ 17.2 µM); in assay [1] (Δ35, ΔompK35 mutant), 8 µg/mL (≈ 34.4 µM); in assay [1] (Δ35/36, ΔompK35/36 mutant), 8 µg/mL (≈ 34.4 µM); in assay [1] (Δ36, ΔompK36 mutant) it was 4 µg/mL (≈ 17.2 µM); in assay [1] (ΔramR mutant), 32 µg/mL (≈ 138 µM); in assay [1] (ΔramRΔ35, ΔramRΔompK35 mutant), 64 µg/mL (≈ 276 µM). For the same molecule, the minimal inhibitory concentration (MIC) in assay [1] (setting [3]) amounted to 32 µg/mL (≈ 138 µM); in assay [1] (ΔramRΔ36, ΔramRΔompK36 mutant) it was 32 µg/mL (≈ 138 µM); in assay [2] (setting [4]), 64 µg/mL; in assay [2] (setting [5]) it was 32 µg/mL; in assay [2] (setting [6]), 64 µg/mL; in assay [2] (setting [7]) it was 8 µg/mL. For the same molecule, the minimum inhibitory concentration (MIC) came to 8 µg/mL in assay [2] (setting [8]), 8 µg/mL in assay [2] (setting [9]), 8 µg/mL in assay [2] (setting [10]) and 32 µg/mL in assay [2] (ΔramRΔompK35/36 mutant).
Consider `CCn1cc(C(=O)O)c(=O)c2cc(F)c(N3CCNCC3)cc21` [Norfloxacin, norfloxacin], for which the minimum inhibitory concentration (MIC) in assay [1] (WT, NVT1001, read-out: MIC) came out at 0.25 µg/mL (≈ 0.783 µM); in assay [1] (Δ35, ΔompK35 mutant), 0.25 µg/mL (≈ 0.783 µM); in assay [1] (Δ35/36, ΔompK35/36 mutant), 0.5 µg/mL (≈ 1.57 µM); in assay [1] (Δ36, ΔompK36 mutant), 0.25 µg/mL (≈ 0.783 µM); in assay [1] (ΔramR mutant), 2 µg/mL (≈ 6.26 µM); in assay [1] (ΔramRΔ35, ΔramRΔompK35 mutant), 2 µg/mL (≈ 6.26 µM). For the same molecule, the MIC was determined as 2 µg/mL (≈ 6.26 µM) in assay [1] (setting [3]); 2 µg/mL (≈ 6.26 µM) in assay [1] (ΔramRΔ36, ΔramRΔompK36 mutant); 2 µg/mL in assay [2] (setting [4]); 2 µg/mL in assay [2] (setting [5]); 2 µg/mL in assay [2] (setting [6]); 0.5 µg/mL in assay [2] (setting [7]). For the same molecule, the MIC in assay [2] (setting [8]) turned out to be 0.25 µg/mL; in assay [2] (setting [9]) it was 0.25 µg/mL; in assay [2] (setting [10]), 0.25 µg/mL; in assay [2] (ΔramRΔompK35/36 mutant), 2 µg/mL.
For `CC1COc2c(N3CCN(C)CC3)c(F)cc3c(=O)c(C(=O)O)cn1c23` (centres unmarked) [Ofloxacin, ofloxacin], the MIC in assay [1] (WT, NVT1001, read-out: MIC) is 0.25 µg/mL (≈ 0.692 µM); in assay [1] (Δ35, ΔompK35 mutant), 0.25 µg/mL (≈ 0.692 µM); in assay [1] (Δ35/36, ΔompK35/36 mutant), 0.25 µg/mL (≈ 0.692 µM); in assay [1] (Δ36, ΔompK36 mutant), 0.25 µg/mL (≈ 0.692 µM); in assay [1] (ΔramR mutant), 2 µg/mL (≈ 5.53 µM); in assay [1] (ΔramRΔ35, ΔramRΔompK35 mutant), 2 µg/mL (≈ 5.53 µM). Moreover, the MIC was determined as 2 µg/mL (≈ 5.53 µM) in assay [1] (setting [3]); 2 µg/mL (≈ 5.53 µM) in assay [1] (ΔramRΔ36, ΔramRΔompK36 mutant); 2 µg/mL in assay [2] (setting [4]); 2 µg/mL in assay [2] (setting [5]); 2 µg/mL in assay [2] (setting [6]); 0.25 µg/mL in assay [2] (setting [7]). The MIC amounted to 0.25 µg/mL in assay [2] (setting [8]), 0.25 µg/mL in assay [2] (setting [9]), 0.25 µg/mL in assay [2] (setting [10]) and 2 µg/mL in assay [2] (ΔramRΔompK35/36 mutant).
